Reference: PubChem BioAssay AID1259407 (Chemical Carcinogenesis Research Information System (CCRIS), 2018)
The source made the active and inactive calls. How the calls were made is not given here.

Tested on: CCRIS mutagenicity, Ames/micronucleus/aberration tests
Test: CCRIS mutagenicity studies
[1] = Test System: AMES SALMONELLA TYPHIMURIUM, Strain/Indicator: TA98, Metabolic Activation: NONE, Method: STANDARD PLATE
[2] = Test System: AMES SALMONELLA TYPHIMURIUM, Strain/Indicator: TA100, Metabolic Activation: NONE, Method: STANDARD PLATE
[3] = Test System: AMES SALMONELLA TYPHIMURIUM, Strain/Indicator: TA1535, Metabolic Activation: NONE, Method: STANDARD PLATE
[4] = Test System: AMES SALMONELLA TYPHIMURIUM, Strain/Indicator: TA98, Metabolic Activation: NONE, Method: PREINCUBATION
[5] = Test System: AMES SALMONELLA TYPHIMURIUM, Strain/Indicator: TA100, Metabolic Activation: NONE, Method: PREINCUBATION

With `CC(C)CCON=O` the mutagenic call (End Point: IN VITRO CHROMOSOMAL ABERRATIONS, Test System: CHINESE HAMSTER OVARY CELLS, Metabolic Activation: NONE) was “active; positive”, the mutagenic call (End Point: IN VITRO CHROMOSOMAL ABERRATIONS, Test System: CHINESE HAMSTER OVARY CELLS, Metabolic Activation: RAT, LIVER, S-9, AROCLOR 1254) was “inactive; negative” and the mutagenic call (Test System: AMES SALMONELLA TYPHIMURIUM, Strain/Indicator: TA98, Metabolic Activation: HAMSTER, LIVER, S-9, AROCLOR 1254, Method: STANDARD PLATE) was “inactive; negative”. For the same compound, the mutagenic call [1] was “inactive; negative”, the mutagenic call (Test System: AMES SALMONELLA TYPHIMURIUM, Strain/Indicator: TA98, Metabolic Activation: RAT, LIVER, S-9, AROCLOR 1254, Method: STANDARD PLATE) was “inactive; negative” and the mutagenic call (Test System: AMES SALMONELLA TYPHIMURIUM, Strain/Indicator: TA100, Metabolic Activation: HAMSTER, LIVER, S-9, AROCLOR 1254, Method: STANDARD PLATE) was “inactive; negative”. The mutagenic call [2] was “inactive; negative”, the mutagenic call (Test System: AMES SALMONELLA TYPHIMURIUM, Strain/Indicator: TA100, Metabolic Activation: RAT, LIVER, S-9, AROCLOR 1254, Method: STANDARD PLATE) was “inactive; negative” and the mutagenic call (Test System: AMES SALMONELLA TYPHIMURIUM, Strain/Indicator: TA1535, Metabolic Activation: HAMSTER, LIVER, S-9, AROCLOR 1254, Method: STANDARD PLATE) was “active; positive”. The mutagenic call [3] was “active; positive”, the mutagenic call (Test System: AMES SALMONELLA TYPHIMURIUM, Strain/Indicator: TA1535, Metabolic Activation: RAT, LIVER, S-9, AROCLOR 1254, Method: STANDARD PLATE) was “active; positive” and the mutagenic call (Test System: AMES SALMONELLA TYPHIMURIUM, Strain/Indicator: TA1537, Metabolic Activation: HAMSTER, LIVER, S-9, AROCLOR 1254, Method: STANDARD PLATE) was “inactive; negative”. The mutagenic call (Test System: AMES SALMONELLA TYPHIMURIUM, Strain/Indicator: TA1537, Metabolic Activation: NONE, Method: STANDARD PLATE) was “inactive; negative”, the mutagenic call (Test System: AMES SALMONELLA TYPHIMURIUM, Strain/Indicator: TA1537, Metabolic Activation: RAT, LIVER, S-9, AROCLOR 1254, Method: STANDARD PLATE) was “inactive; negative” and the mutagenic call (Test System: MOUSE LYMPHOMA, Strain/Indicator: L5178Y (TK+/TK-), Metabolic Activation: NONE, Method: SUSPENSION/PLATE) was “active; positive”. The mutagenic call (Test System: MOUSE LYMPHOMA, Strain/Indicator: L5178Y (TK+/TK-), Metabolic Activation: RAT, LIVER, S-9, AROCLOR 1254, Method: SUSPENSION/PLATE) was “active; positive”.

With `CCOS(=O)(=O)c1ccc(C)cc1` the mutagenic call (End Point: IN VITRO MICRONUCLEUS, Test System: MOUSE LYMPHOMA L5178Y CELLS, Metabolic Activation: NONE) was “active; positive”, the mutagenic call (End Point: IN VITRO MICRONUCLEUS, Test System: MOUSE LYMPHOMA L5178Y CELLS, Metabolic Activation: RAT, LIVER, S-9) was “active; positive” and the mutagenic call (End Point: In vitro micronucleus, Test System: Chinese Hamster Ovary (CHO-WBL) cells, Metabolic Activation: None) was “active; positive (p<0.01)”. The mutagenic call [2] was “inactive; negative; authors describe results as weakly positive”, the mutagenic call (Test System: AMES SALMONELLA TYPHIMURIUM, Strain/Indicator: TA100, Metabolic Activation: RAT, LIVER, S-9, Method: STANDARD PLATE) was “inactive; negative; authors describe results as weakly positive” and the mutagenic call [3] was “active; positive”. For the same compound, the mutagenic call (Test System: UDS HUMAN FIBROBLASTS, Strain/Indicator: THY INCORP (NON-S-PHASE), Metabolic Activation: NONE, Method: LIQUID SCINTILLATION COUNTING) was “active; positive”.

`Cc1ccc(C=O)o1` was tested, and the mutagenic call [4] was “inactive; negative”, the mutagenic call [1] was “inactive; negative” and the mutagenic call (Test System: AMES SALMONELLA TYPHIMURIUM, Strain/Indicator: TA98, Metabolic Activation: RAT, LIVER, S-9, AROCLOR 1254, Method: PREINCUBATION) was “inactive; negative”. The mutagenic call (Test System: AMES SALMONELLA TYPHIMURIUM, Strain/Indicator: TA98, Metabolic Activation: S-9, Method: STANDARD PLATE) was “inactive; negative”, the mutagenic call [5] was “inactive; negative” and the mutagenic call [2] was “inactive; negative”. For the same compound, the mutagenic call (Test System: AMES SALMONELLA TYPHIMURIUM, Strain/Indicator: TA100, Metabolic Activation: RAT, LIVER, S-9, AROCLOR 1254, Method: PREINCUBATION) was “inactive; negative”, the mutagenic call (Test System: AMES SALMONELLA TYPHIMURIUM, Strain/Indicator: TA100, Metabolic Activation: S-9, Method: STANDARD PLATE) was “inactive; negative” and the mutagenic call (Test System: AMES SALMONELLA TYPHIMURIUM, Strain/Indicator: TA102, Metabolic Activation: NONE, Method: PREINCUBATION) was “inactive; negative”. The mutagenic call (Test System: AMES SALMONELLA TYPHIMURIUM, Strain/Indicator: TA102, Metabolic Activation: RAT, LIVER, S-9, AROCLOR 1254, Method: PREINCUBATION) was “inactive; negative”.

With `Cc1cn(CC(O)CN=[N+]=[N-])c(=O)[nH]c1=O` (stereo not given) the mutagenic call [2] was “active; positive”.

For `CC(C)(C)N(CC(O)COc1cccc2c1CC(O)C(O)C2)N=O` (stereo not given), the mutagenic call (Test System: UDS HUMAN HEPATOCYTES, Strain/Indicator: THY INCORP, Metabolic Activation: NONE, Method: AUTORADIOGRAPHY) was “active; positive” and the mutagenic call (Test System: UDS RAT HEPATOCYTES, Strain/Indicator: THY INCORP, Metabolic Activation: NONE, Method: AUTORADIOGRAPHY) was “active; positive”.

`N#Cc1nn(-c2c(Cl)cc(C(F)(F)F)cc2Cl)c(N)c1S(=O)C(F)(F)F` (stereo not given) was tested, and the mutagenic call (End Point: Ames Salmonella typhimurium, Test System: TA98, Metabolic Activation: None, Method: Plate incorporation) was “inactive; negative”, the mutagenic call (End Point: Ames Salmonella typhimurium, Test System: TA98, Metabolic Activation: Rat, Liver, S-9, Aroclor 1254, Method: Plate incorporation) was “inactive; negative” and the mutagenic call (End Point: Ames Salmonella typhimurium, Test System: TA100, Metabolic Activation: None, Method: Plate incorporation) was “inactive; negative”. For the same compound, the mutagenic call (End Point: Ames Salmonella typhimurium, Test System: TA100, Metabolic Activation: Rat, Liver, S-9, Aroclor 1254, Method: Plate incorporation) was “inactive; negative”, the mutagenic call (End Point: Ames Salmonella typhimurium, Test System: TA1535, Metabolic Activation: None, Method: Plate incorporation) was “inactive; negative” and the mutagenic call (End Point: Ames Salmonella typhimurium, Test System: TA1535, Metabolic Activation: Rat, Liver, S-9, Aroclor 1254, Method: Plate incorporation) was “inactive; negative”. For the same compound, the mutagenic call (End Point: Ames Salmonella typhimurium, Test System: TA1537, Metabolic Activation: None, Method: Plate incorporation) was “inactive; negative”, the mutagenic call (End Point: Ames Salmonella typhimurium, Test System: TA1537, Metabolic Activation: Rat, Liver, S-9, Aroclor 1254, Method: Plate incorporation) was “inactive; negative” and the mutagenic call (End Point: In vitro chromosomal aberrations, Test System: Human lymphocytes (male and female), Metabolic Activation: None) was “inactive; negative”. For the same compound, the mutagenic call (End Point: In vitro chromosomal aberrations, Test System: Human lymphocytes (male and female), Metabolic Activation: Rat, Liver, S-9, Aroclor 1254) was “inactive; negative”, the mutagenic call (End Point: In vivo micronucleus, Test System: Bone marrow polychromatic erythrocytes, Species: Mouse, Strain/Sex: CD-1/Male and female, Route: Oral) was “inactive; negative” and the mutagenic call (Test System: HGPRT mutations, Strain/Indicator: Chinese hamster V79 cells, Metabolic Activation: None) was “inactive; negative”. For the same compound, the mutagenic call (Test System: HGPRT mutations, Strain/Indicator: Chinese hamster V79 cells, Metabolic Activation: Rat, Liver, S-9, Aroclor 1254) was “inactive; negative”.

With `CCCCc1ccc(N=Cc2ccc(OC)cc2)cc1` the mutagenic call [4] was “inactive; negative”, the mutagenic call (Test System: AMES SALMONELLA TYPHIMURIUM, Strain/Indicator: TA100, Metabolic Activation: HAMSTER, LIVER, S-9, AROCLOR 1254 (30%), Method: PREINCUBATION) was “active; positive” and the mutagenic call [5] was “inactive; negative”. For the same compound, the mutagenic call (Test System: AMES SALMONELLA TYPHIMURIUM, Strain/Indicator: TA100, Metabolic Activation: RAT, LIVER, S-9, AROCLOR 1254 (30%), Method: PREINCUBATION) was “inactive; negative”.

With `CC(C)(Br)C(Br)COP(=O)(OCC(Br)C(C)(C)Br)OCC(Br)C(C)(C)Br` (stereo not given) the mutagenic call (Test System: AMES SALMONELLA TYPHIMURIUM, Strain/Indicator: TA100, Metabolic Activation: RAT, LIVER, MICROSOMES, PHENOBARBITAL, Method: PREINCUBATION) was “inactive; negative” and the mutagenic call (Test System: AMES SALMONELLA TYPHIMURIUM, Strain/Indicator: TA100, Metabolic Activation: RAT, LIVER, MICROSOMES, Method: PREINCUBATION) was “inactive; negative”.
